Source: ChEMBL document CHEMBL5321230, “Design, synthesis, and biological evaluation of novel HIV-1 protease inhibitors containing pyrrolidine-derived P2 ligands to combat drug-resistant variant” (Eur J Med Chem, 2023)

Columns and labels:
[1] = target: Human immunodeficiency virus type 1 protease (Human immunodeficiency virus 1, UniProt Q72874); test: Inhibition of HIV-1 protease expressed in Escherichia coli using Arg-Glu(EDANS)-Ser-Gln-Asn-Tyr-Pro-Ile-Val-Gln-Lys(DABCYL)-Arg peptide as substrate preincubated for 20 to 30 mins followed by substrate addition and measured for 10 mins by FRET assay
[2] = Cytotoxicity against human HEK293T cells assessed as reduction in cell viability incubated for 24 hrs by CCK-8 assay; format: toxicity, cell-based, HEK-293T
[3] = system: Human immunodeficiency virus 1; test: (§1) Antiviral activity against wild type VSV-G pseudotyped HIV-1 NL4-3 infected in human HEK293T cells assessed as inhibition of viral replication by measuring luciferase activity incubated for 48 hrs further infected with human SupT1 cells for 48 hrs by luciferase based analysis; format: functional, organism-based; details: Human immunodeficiency virus 1, NL4-3, HEK-293T
[4] = system: Human immunodeficiency virus 1; test: as §1, with “drug-resistant” for “wild type”, “NL4-3 harboring protease V32I/L33F/I54M/I84V mutant” for “NL4-3”; format: functional, organism-based; details: Human immunodeficiency virus 1, NL4-3, HEK-293T

SMILES	IC50 [1]	CC50 at 24 h [2]	EC50 [3]	EC50 [4]
COc1ccc(S(=O)(=O)N(CC(C)C)C[C@@H](O)[C@H](Cc2ccccc2)NC(=O)C[C@@H]2CCNC2)cc1	20.5 µM			
CC(C)CN(C[C@@H](O)[C@H](Cc1ccccc1)NC(=O)O[C@@H]1CCNC1)S(=O)(=O)c1ccc(NO)cc1	27.4 µM			
CC(C)CN(C[C@@H](O)[C@H](Cc1ccccc1)NC(=O)C[C@H]1CCNC1)S(=O)(=O)c1ccc(O)cc1	1.43 µM			
COc1ccc(S(=O)(=O)N(CC(C)C)C[C@@H](O)[C@H](Cc2ccccc2)NC(=O)O[C@H]2CCNC2)cc1	1.1 µM			
CC(C)CN(C[C@@H](O)[C@H](Cc1ccccc1)NC(=O)O[C@@H]1CCNC1)S(=O)(=O)c1ccc(O)cc1	0.82 µM	> 200 µM	750 nM	9.26 µM
COc1ccc(S(=O)(=O)N(CC(C)C)C[C@@H](O)[C@H](Cc2ccccc2)NC(=O)[C@H]2CCCN2)cc1	39.8 µM			
COc1ccc(S(=O)(=O)N(CC(C)C)C[C@@H](O)[C@H](Cc2ccccc2)NC(=O)[C@@H]2CCCN2)cc1	2.19 µM			
COc1ccc(S(=O)(=O)N(CC(C)C)C[C@@H](O)[C@H](Cc2ccccc2)NC(=O)[C@H]2CCNC2)cc1	0.6 µM			
CC(C)CN(C[C@@H](O)[C@H](Cc1ccccc1)NC(=O)N[C@H]1CCNC1)S(=O)(=O)c1ccc(O)cc1	1.95 µM			
COc1ccc(S(=O)(=O)N(CC(C)C)C[C@@H](O)[C@H](Cc2ccccc2)NC(=O)C[C@H]2CCNC2)cc1	2.77 µM			
COc1ccc(S(=O)(=O)N(CC(C)C)C[C@@H](O)[C@H](Cc2ccccc2)NC(=O)[C@@H]2CCNC2)cc1	0.41 µM	> 200 µM	1350 nM	2.51 µM
CC(C)CN(C[C@@H](O)[C@H](Cc1ccccc1)NC(=O)[C@H]1CCCN1)S(=O)(=O)c1ccc(O)cc1	96.9 µM			
CC(C)CN(C[C@@H](O)[C@H](Cc1ccccc1)NC(=O)N[C@@H]1CCNC1)S(=O)(=O)c1ccc(O)cc1	5.97 µM			
COc1ccc(S(=O)(=O)N(CC(C)C)C[C@@H](O)[C@H](Cc2ccccc2)NC(=O)[C@@H]2CCNC2)cn1	0.83 µM			
COc1ccc(S(=O)(=O)N(CC(C)C)C[C@@H](O)[C@H](Cc2ccccc2)NC(=O)N[C@@H]2CCNC2)cc1	20.7 µM			
CC(C)CN(C[C@@H](O)[C@H](Cc1ccccc1)NC(=O)O[C@H]1CCNC1)S(=O)(=O)c1ccc(N)cc1	5.06 µM			
CC(C)CN(C[C@@H](O)[C@H](Cc1ccccc1)NC(=O)O[C@@H]1CCNC1)S(=O)(=O)c1ccc(N)cc1	25.4 µM			

SMILES	IC50 [1]	CC50 at 24 h [2]	EC50 [3]	EC50 [4]
COc1ccc(S(=O)(=O)N(CC(C)C)C[C@@H](O)[C@H](Cc2ccccc2)NC(=O)O[C@@H]2CCNC2)cc1	2.58 µM			
CC(C)CN(C[C@@H](O)[C@H](Cc1ccccc1)NC(=O)[C@@H]1CCNC1)S(=O)(=O)c1ccc(NO)cc1	1.21 µM			
COc1ccc(S(=O)(=O)N(CC(C)C)C[C@@H](O)[C@H](Cc2ccccc2)NC(=O)[C@H]2CCNC2)cn1	4.74 µM			
CC(C)CN(C[C@@H](O)[C@H](Cc1ccccc1)NC(=O)O[C@H]1CCOC1)S(=O)(=O)c1ccc(N)cc1		> 200 µM	260 nM	3.93 µM
CC(C)CN(C[C@@H](O)[C@H](Cc1ccccc1)NC(=O)O[C@H]1CCNC1)S(=O)(=O)c1ccc(NO)cc1	5.1 µM			
CC(C)CN(C[C@@H](O)[C@H](Cc1ccccc1)NC(=O)O[C@H]1CCNC1)S(=O)(=O)c1ccc(O)cc1	0.72 µM	> 200 µM	410 nM	8.14 µM
CC(C)CN(C[C@@H](O)[C@H](Cc1ccccc1)NC(=O)[C@H]1CCNC1)S(=O)(=O)c1ccc(O)cc1	0.51 µM	> 200 µM	1570 nM	13.3 µM
CC(C)CN(C[C@@H](O)[C@H](Cc1ccccc1)NC(=O)[C@H]1CCNC1)S(=O)(=O)c1ccc(N)cc1	12.5 µM			
CC(C)CN(C[C@@H](O)[C@H](Cc1ccccc1)NC(=O)[C@@H]1CCNC1)S(=O)(=O)c1ccc(O)cc1	0.32 µM	> 200 µM	290 nM	1.9 µM
COc1ccc(S(=O)(=O)N(CC(C)C)C[C@@H](O)[C@H](Cc2ccccc2)NC(=O)O[C@H]2CCNC2)cn1	4.04 µM			
CC(C)CN(C[C@@H](O)[C@H](Cc1ccccc1)NC(=O)[C@@H]1CCCN1)S(=O)(=O)c1ccc(O)cc1	0.97 µM			
COc1ccc(S(=O)(=O)N(CC(C)C)C[C@@H](O)[C@H](Cc2ccccc2)NC(=O)N[C@H]2CCNC2)cc1	4.01 µM			
COc1ccc(S(=O)(=O)N(CC(C)C)C[C@@H](O)[C@H](Cc2ccccc2)NC(=O)O[C@@H]2CCNC2)cn1	23 µM			
CC(C)CN(C[C@@H](O)[C@H](Cc1ccccc1)NC(=O)[C@@H]1CCNC1)S(=O)(=O)c1ccc(N)cc1	6.16 µM			
CC(C)CN(C[C@@H](O)[C@H](Cc1ccccc1)NC(=O)[C@H]1CCNC1)S(=O)(=O)c1ccc(NO)cc1	10.9 µM			
CC(C)CN(C[C@@H](O)[C@H](Cc1ccccc1)NC(=O)C[C@@H]1CCNC1)S(=O)(=O)c1ccc(O)cc1	5.01 µM			
